According to PMC7377239, “Cardiovascular Effects of Polychlorinated Biphenyls and Their Major Metabolites” (Environmental Health Perspectives, 2020):
Like-named read-outs stand apart in the source and are kept apart here.

Assays:
HUVECs = experiment: Tube formation (tubulogenesis) assay in HUVECs, 18 h; format: cell-based, human; settings: Homo sapiens, HUVEC, 18 h; for activity at 0.01 µM: concentration 0.01 µM; for activity at 0.1 µM: concentration 0.10 µM; for activity at 1 µM: concentration 1.00 µM; for activity at 10 µM: concentration 10.00 µM; for activity at 100 µM: concentration 100.00 µM
Summary of the method: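 HUVECs (passage 1–5) seeded on reduced-growth-factor basement membrane and exposed to compounds overnight at 37°C, 5% CO2, in 2× maintenance medium with 12.5 ng/mL VEGF; 0.5% DMSO vehicle. Calcein AM-stained tube networks imaged and analysed; vehicle-normalized readouts fit to four-parameter logistic, POD set at one SD of vehicle means.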

[1] = test system: iCell endothelial cells (human iPSC-derived ECs); experiment: High-content imaging cytotoxicity in iCell endothelial cells, 24 h; format: cell-based; settings: Homo sapiens, Endothelial cell; for viability at 0.1 µM / activity at 0.1 µM: 0.10 µM
Summary of the method: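 Readouts were vehicle-normalised and fitted to a four-parameter logistic model. POD was set at one SD beyond 0.5% DMSO control means, and 100 µM was assigned when no response was seen. Cells were monolayers of iCell endothelial cells imaged after 24 h compound exposure using nuclear, mitochondrial and calcein dyes.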

[2] = HUVECs tube formation, 0.00 µM = 100.00, read-out: huvec.mtl.18hr
[3] = HUVECs tube formation, 0.00 µM = 100.00, read-out: huvec.tlps.18hr
[4] = HUVECs tube formation, 0.00 µM = 100.00, read-out: huvec.tta.18hr
[5] = HUVECs tube formation, 0.00 µM = 100.00, read-out: huvec.ttl.18hr
[6] = iPSC-EC, 0.00 µM = 100.00, read-out: endo.cyto.24hr
[7] = iPSC-EC, 0.00 µM = 100.00, read-out: endo.mito.24hr
[8] = iPSC-EC, 0.00 µM = 100.00, read-out: endo.mitoint.24hr
[9] = iPSC-EC, 0.00 µM = 100.00, read-out: endo.nma.24hr
[10] = iPSC-EC, 0.00 µM = 100.00, read-out: endo.tc.24hrs

With Clc1ccc(-c2cc(Cl)c(Cl)c(Cl)c2)cc1Cl [PCB126] the minimal effective concentration (HUVECs; HUVECs tube formation, MAX 100.00, read-out: huvec.mtl.18hr POD) was 100 µM, the minimal effective concentration (HUVECs; HUVECs tube formation, MAX 100.00, read-out: huvec.tlps.18hr POD) was 100 µM and the minimal effective concentration (HUVECs; HUVECs tube formation, MAX 100.00, read-out: huvec.tta.18hr POD) was 100 µM. The minimal effective concentration (HUVECs; HUVECs tube formation, MAX 100.00, read-out: huvec.ttl.18hr POD) was 100 µM, the activity at 0.01 µM (HUVECs; [2]) was 93.6% and the activity at 0.01 µM (HUVECs; [3]) was 51.1%. It also gave an activity at 0.01 µM (HUVECs; [4]) of 51.1%, an activity at 0.01 µM (HUVECs; [5]) of 53.8% and an activity at 0.1 µM (HUVECs; [2]) of 98.7%. The activity at 0.1 µM (HUVECs; [3]) was 67.7%, the activity at 0.1 µM (HUVECs; [4]) was 80.9% and the activity at 0.1 µM (HUVECs; [5]) was 84.3%. For the same compound, the activity at 1 µM (HUVECs; [2]) was 87.8%, the activity at 1 µM (HUVECs; [3]) was 61.4% and the activity at 1 µM (HUVECs; [4]) was 77.3%. It also gave an activity at 1 µM (HUVECs; [5]) of 83.6%, an activity at 10 µM (HUVECs; [2]) of 89.6% and an activity at 10 µM (HUVECs; [3]) of 52.3%. It also gave an activity at 10 µM (HUVECs; [4]) of 94.3%, an activity at 10 µM (HUVECs; [5]) of 100% and an activity at 100 µM (HUVECs; [2]) of 83.2%. The activity at 100 µM (HUVECs; [3]) was 59.4%, the activity at 100 µM (HUVECs; [4]) was 92.7% and the activity at 100 µM (HUVECs; [5]) was 88.9%. For the same compound, the viability at 0.01 µM [1, 6] was 100%, the activity at 0.01 µM [1, 7] was 99.1% and the activity at 0.01 µM [1, 8] was 79.8%. It also gave an activity at 0.01 µM [1, 9] of 97.4%, a viability at 0.01 µM [1, 10] of 100% and a viability at 0.1 µM [1, 6] of 95%. For the same compound, the activity at 0.1 µM [1, 7] was 95.2%, the activity at 0.1 µM [1, 8] was 106% and the activity at 0.1 µM [1, 9] was 97.8%. The viability at 0.1 µM [1, 10] was 95%, the viability at 1 µM [1, 6] was 93.4% and the activity at 1 µM [1, 7] was 93.4%. For the same compound, the activity at 1 µM [1, 8] was 100%, the activity at 1 µM [1, 9] was 101% and the viability at 1 µM [1, 10] was 93.4%. It also gave a viability at 10 µM [1, 6] of 87.7%, an activity at 10 µM [1, 7] of 87.6% and an activity at 10 µM [1, 8] of 110%. The activity at 10 µM [1, 9] was 103%, the viability at 10 µM [1, 10] was 87.7% and the viability at 100 µM [1, 6] was 75.3%. For the same compound, the activity at 100 µM [1, 7] was 74.9%, the activity at 100 µM [1, 8] was 151% and the activity at 100 µM [1, 9] was 98.8%. For the same compound, the viability at 100 µM [1, 10] was 76.9%, the minimal effective concentration ([1]; iPSC-EC, 100.00 = highest concentration tested, read-out: endo.cyto.24hr POD) was 0.33 µM and the minimal effective concentration ([1]; iPSC-EC, 100.00 = highest concentration tested, read-out: endo.mito.24hr POD) was 0.33 µM. For the same compound, the minimal effective concentration ([1]; iPSC-EC, 100.00 = highest concentration tested, read-out: endo.mitoint.24hr POD) was 10.2 µM, the minimal effective concentration ([1]; iPSC-EC, 100.00 = highest concentration tested, read-out: endo.nma.24hr POD) was 100 µM and the minimal effective concentration ([1]; iPSC-EC, 100.00 = highest concentration tested, read-out: endo.tc.24hrs POD) was 0.34 µM.
For Clc1ccc(Cl)c(-c2cc(Cl)ccc2Cl)c1 [PCB 52, 2,2′,5,5′-tetrachlorobiphenyl], the minimal effective concentration (HUVECs; tube formation mtl, read-out: POD huvec.mtl.18hr) was 100 µM, the minimal effective concentration (HUVECs; tube formation tlps, read-out: POD huvec.tlps.18hr) was 100 µM and the minimal effective concentration (HUVECs; tube formation tta, read-out: POD huvec.tta.18hr) was 100 µM. It also gave a minimal effective concentration (HUVECs; tube formation ttl, read-out: POD huvec.ttl.18hr) of 100 µM, a minimal effective concentration ([1]; endothelial cells (endo), cyto, 24 hr, read-out: POD endo.cyto.24hr) of 100 µM and a minimal effective concentration ([1]; endothelial cells (endo), mito, 24 hr, read-out: POD endo.mito.24hr) of 100 µM. It also gave a minimal effective concentration ([1]; endothelial cells (endo), mitoint, 24 hr, read-out: POD endo.mitoint.24hr) of 100 µM, a minimal effective concentration ([1]; endothelial cells (endo), nma, 24 hr, read-out: POD endo.nma.24hr) of 100 µM and a minimal effective concentration ([1]; endothelial cells (endo), tc, 24 hr, read-out: POD endo.tc.24hr) of 100 µM.
